# Source: article PMC7827406, “Structure–Activity Relationship (SAR) Study of Spautin-1 to Entail the Discovery of Novel NEK4 Inhibitors” (International Journal of Molecular Sciences, 2021)
# Like-named read-outs stand apart in the source and are kept apart here.
# Experiments:
# Test in all cases: biochemical
# Set-up in all cases: Eurofins KinaseProfiler full panel at Km ATP, residual kinase activity (%) relative to DMSO
# PDGFRβ(h) = target: T1, PDGFRβ(h) (Homo sapiens, UniProt P09619)
# T1 construct: gene PDGFRB
# Outline: (§1)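 Two 10 µM single-concentration screens were run: a competition-binding screen, in which DNA-tagged kinase bound to immobilized ligands was quantified by qPCR, and a radiometric activity panel at Km ATP. Each is expressed as residual kinase activity (%).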
# Rsk3(h) = target: T2, Rsk3(h) (Homo sapiens, UniProt Q15349)
# T2 construct: gene RPS6KA2
# Outline: as §1
# EphA2(h) = EphA2(h) (Homo sapiens, UniProt P29317)
# Outline: as §1
# MELK(h) = MELK(h) (Homo sapiens, UniProt Q14680)
# Outline: as §1
# CHK2(R145W)(h) = target: T3, CHK2(R145W)(h) (Homo sapiens, UniProt O96017, R145W)
# T3 construct: gene CHEK2
# Outline: as §1
# CaMKIIα(h) = target: T4, CaMKIIα(h) (Homo sapiens, UniProt Q9UQM7)
# T4 construct: gene CAMK2A
# Outline: as §1
# MST2(h) = target: T5, MST2(h) (Homo sapiens, UniProt Q13188)
# T5 construct: gene STK3
# T5 sequence (Q13188 1-491): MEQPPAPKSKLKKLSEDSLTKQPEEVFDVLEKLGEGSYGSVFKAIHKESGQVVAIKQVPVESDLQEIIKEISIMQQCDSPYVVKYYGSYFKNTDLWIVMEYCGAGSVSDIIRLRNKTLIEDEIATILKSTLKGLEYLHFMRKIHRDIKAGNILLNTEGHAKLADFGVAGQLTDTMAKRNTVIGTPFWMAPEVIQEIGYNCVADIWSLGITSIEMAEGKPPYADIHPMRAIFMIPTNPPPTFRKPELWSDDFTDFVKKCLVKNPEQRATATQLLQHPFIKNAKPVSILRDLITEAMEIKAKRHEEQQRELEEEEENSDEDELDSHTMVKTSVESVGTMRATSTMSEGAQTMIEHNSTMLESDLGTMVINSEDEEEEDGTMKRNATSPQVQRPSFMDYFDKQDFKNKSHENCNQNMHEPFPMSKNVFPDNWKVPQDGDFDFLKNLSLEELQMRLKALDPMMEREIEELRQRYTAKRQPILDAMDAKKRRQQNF
# Outline: as §1
# ALK6(h) = target: T6, ALK6(h) (Homo sapiens, UniProt O00238)
# T6 construct: gene BMPR1B
# Outline: as §1
# EphA5(h) = EphA5(h) (Homo sapiens, UniProt P54756)
# Outline: as §1
# SRMS(h) = SRMS(h) (Homo sapiens, UniProt Q9H3Y6)
# Outline: as §1
# CK1γ2(h) = target: T7, CK1γ2(h) (Homo sapiens, UniProt P78368)
# T7 construct: gene CSNK1G2
# Outline: as §1
# PAK3(h) = PAK3(h) (Homo sapiens, UniProt O75914)
# Outline: as §1
# MAP4K4(h) = MAP4K4(h) (Homo sapiens, UniProt O95819)
# Outline: as §1
# SBK1(h) = SBK1(h) (Homo sapiens, UniProt Q52WX2)
# Outline: as §1
# SIK2(h) = SIK2(h) (Homo sapiens, UniProt Q9H0K1)
# Outline: as §1
# [1] = read-out: Residual activity (%) 5at
# [2] = read-out: Residual activity (%) 5as
# [3] = read-out: Residual activity (%) 5ay
# [4] = read-out: Residual activity (%) Spautin-1 5aa
# Sequence of PAK3(h) (O75914 whole entry): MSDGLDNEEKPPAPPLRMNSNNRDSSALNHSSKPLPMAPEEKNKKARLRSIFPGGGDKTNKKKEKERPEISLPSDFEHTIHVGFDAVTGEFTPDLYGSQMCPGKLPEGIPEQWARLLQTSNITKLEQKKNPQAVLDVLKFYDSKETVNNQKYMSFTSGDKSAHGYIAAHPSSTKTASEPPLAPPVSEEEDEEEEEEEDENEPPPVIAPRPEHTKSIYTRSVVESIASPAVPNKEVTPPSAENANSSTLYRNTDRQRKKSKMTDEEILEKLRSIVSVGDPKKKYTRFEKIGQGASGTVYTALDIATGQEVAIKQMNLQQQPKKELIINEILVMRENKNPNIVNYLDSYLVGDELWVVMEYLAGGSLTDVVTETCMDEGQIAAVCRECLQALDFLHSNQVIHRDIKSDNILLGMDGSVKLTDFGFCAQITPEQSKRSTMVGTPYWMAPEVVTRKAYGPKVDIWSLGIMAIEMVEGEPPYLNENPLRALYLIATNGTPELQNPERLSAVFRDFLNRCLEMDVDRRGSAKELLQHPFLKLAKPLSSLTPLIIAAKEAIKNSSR
# T7 sequence (P78368 whole entry): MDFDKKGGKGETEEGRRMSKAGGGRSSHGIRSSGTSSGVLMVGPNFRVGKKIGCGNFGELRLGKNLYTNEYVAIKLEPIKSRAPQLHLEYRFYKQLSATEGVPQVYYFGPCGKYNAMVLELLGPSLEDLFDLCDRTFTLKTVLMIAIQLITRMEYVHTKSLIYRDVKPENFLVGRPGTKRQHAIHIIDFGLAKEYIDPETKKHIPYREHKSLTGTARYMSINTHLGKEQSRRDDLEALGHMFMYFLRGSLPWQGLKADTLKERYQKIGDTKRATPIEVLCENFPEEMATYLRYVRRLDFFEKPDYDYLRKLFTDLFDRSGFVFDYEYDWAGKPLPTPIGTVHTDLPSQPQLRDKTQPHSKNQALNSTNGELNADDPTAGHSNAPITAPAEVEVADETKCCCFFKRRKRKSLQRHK
# Sequence of EphA2(h) (P29317 whole entry): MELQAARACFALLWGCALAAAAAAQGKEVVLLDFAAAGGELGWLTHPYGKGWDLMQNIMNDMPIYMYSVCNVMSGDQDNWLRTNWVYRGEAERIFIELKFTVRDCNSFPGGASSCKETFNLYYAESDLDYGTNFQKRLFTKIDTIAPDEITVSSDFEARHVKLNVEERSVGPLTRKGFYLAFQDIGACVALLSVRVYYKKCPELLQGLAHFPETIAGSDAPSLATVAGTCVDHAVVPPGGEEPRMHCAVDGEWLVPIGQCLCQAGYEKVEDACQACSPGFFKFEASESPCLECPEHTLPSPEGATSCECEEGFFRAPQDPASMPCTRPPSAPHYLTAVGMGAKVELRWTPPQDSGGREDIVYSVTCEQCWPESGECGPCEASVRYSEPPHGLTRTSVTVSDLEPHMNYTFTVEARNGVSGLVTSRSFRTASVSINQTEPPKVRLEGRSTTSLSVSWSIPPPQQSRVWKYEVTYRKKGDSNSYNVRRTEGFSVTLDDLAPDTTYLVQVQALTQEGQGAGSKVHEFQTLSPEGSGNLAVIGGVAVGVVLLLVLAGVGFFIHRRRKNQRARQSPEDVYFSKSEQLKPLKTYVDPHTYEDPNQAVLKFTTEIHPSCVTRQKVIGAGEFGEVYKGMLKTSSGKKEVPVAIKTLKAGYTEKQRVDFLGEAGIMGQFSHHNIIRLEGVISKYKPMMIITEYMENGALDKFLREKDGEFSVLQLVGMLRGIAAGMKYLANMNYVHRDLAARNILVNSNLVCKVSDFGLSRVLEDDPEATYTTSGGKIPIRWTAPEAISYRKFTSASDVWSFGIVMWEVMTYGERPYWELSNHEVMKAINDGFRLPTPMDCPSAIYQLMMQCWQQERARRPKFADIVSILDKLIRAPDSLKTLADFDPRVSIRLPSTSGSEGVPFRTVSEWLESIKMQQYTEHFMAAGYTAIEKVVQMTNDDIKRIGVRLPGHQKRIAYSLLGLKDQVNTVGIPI
# T4 sequence (Q9UQM7 whole entry): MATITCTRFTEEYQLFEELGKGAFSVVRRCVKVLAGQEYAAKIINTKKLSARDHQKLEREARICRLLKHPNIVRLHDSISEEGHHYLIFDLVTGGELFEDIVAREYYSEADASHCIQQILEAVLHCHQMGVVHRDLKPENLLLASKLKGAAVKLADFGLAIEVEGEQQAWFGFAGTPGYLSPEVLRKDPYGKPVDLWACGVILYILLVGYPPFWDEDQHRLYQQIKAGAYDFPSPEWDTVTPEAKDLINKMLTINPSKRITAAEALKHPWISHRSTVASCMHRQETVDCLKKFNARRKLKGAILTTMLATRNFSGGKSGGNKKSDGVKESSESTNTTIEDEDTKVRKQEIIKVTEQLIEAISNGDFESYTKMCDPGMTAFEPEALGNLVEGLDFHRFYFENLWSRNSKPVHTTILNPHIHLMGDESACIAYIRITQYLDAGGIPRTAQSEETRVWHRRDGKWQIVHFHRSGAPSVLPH
# Sequence of MAP4K4(h) (O95819 whole entry): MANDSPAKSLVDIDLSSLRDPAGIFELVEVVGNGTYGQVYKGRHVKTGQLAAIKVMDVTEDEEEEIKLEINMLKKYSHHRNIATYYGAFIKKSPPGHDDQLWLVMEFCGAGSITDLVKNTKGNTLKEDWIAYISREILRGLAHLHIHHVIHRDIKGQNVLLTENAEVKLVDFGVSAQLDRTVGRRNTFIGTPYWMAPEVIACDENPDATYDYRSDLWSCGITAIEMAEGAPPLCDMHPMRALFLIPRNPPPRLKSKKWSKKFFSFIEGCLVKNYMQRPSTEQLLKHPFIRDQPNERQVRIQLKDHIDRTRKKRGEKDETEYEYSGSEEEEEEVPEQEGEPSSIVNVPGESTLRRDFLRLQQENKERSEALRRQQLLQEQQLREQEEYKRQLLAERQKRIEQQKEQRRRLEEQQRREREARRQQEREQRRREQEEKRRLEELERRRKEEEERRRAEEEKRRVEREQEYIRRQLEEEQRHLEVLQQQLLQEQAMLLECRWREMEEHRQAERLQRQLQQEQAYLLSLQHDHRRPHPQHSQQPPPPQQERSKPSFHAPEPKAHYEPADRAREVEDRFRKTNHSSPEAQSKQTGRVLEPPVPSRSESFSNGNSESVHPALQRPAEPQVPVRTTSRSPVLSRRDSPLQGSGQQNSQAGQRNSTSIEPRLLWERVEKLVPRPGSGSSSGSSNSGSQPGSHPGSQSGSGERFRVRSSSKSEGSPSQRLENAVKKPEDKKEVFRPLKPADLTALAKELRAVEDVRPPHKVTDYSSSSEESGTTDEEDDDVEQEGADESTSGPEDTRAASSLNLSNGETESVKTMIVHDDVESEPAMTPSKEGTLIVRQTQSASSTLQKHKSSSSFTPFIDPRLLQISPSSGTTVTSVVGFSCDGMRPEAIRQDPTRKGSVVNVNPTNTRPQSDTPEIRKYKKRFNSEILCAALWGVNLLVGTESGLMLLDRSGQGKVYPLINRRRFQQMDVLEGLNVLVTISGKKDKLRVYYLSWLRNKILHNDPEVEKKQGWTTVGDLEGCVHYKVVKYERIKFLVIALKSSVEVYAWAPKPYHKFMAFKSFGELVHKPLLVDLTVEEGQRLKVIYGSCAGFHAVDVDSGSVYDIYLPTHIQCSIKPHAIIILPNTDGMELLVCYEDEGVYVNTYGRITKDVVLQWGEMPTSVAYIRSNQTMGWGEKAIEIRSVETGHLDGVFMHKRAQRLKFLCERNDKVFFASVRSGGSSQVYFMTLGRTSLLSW
# T2 sequence (Q15349 whole entry): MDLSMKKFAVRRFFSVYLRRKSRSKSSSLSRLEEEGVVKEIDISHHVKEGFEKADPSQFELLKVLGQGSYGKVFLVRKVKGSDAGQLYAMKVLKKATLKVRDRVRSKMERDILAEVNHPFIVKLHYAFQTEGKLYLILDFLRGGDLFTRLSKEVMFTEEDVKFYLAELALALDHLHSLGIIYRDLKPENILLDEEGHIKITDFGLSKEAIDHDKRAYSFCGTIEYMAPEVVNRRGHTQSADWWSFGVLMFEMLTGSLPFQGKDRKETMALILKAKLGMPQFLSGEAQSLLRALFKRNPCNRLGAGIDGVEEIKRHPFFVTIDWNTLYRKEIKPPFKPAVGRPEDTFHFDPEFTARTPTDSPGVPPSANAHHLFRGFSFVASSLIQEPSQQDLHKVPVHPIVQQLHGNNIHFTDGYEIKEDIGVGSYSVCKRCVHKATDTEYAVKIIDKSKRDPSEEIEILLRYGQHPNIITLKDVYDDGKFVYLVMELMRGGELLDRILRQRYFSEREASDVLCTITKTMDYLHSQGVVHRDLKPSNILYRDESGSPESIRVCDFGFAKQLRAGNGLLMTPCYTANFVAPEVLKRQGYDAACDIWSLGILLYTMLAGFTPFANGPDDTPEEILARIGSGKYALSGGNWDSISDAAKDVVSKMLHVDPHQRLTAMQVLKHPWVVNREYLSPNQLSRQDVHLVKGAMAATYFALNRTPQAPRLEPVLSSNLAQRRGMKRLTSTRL
# Sequence of SBK1(h) (Q52WX2 whole entry): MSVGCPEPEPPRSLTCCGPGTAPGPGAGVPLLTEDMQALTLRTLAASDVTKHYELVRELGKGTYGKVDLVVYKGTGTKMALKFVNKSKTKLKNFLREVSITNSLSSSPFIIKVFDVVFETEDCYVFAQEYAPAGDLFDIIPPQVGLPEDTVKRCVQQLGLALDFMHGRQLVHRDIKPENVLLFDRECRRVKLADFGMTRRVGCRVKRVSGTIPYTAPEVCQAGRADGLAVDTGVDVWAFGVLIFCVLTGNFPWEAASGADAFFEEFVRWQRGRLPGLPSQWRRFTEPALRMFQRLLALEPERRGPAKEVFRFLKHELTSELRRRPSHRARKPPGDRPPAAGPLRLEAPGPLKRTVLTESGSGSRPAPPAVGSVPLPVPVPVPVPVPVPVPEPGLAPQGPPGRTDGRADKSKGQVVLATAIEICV
structure (smiles),measurement,setting,value
"Fc1ccc2ncnc(NCCc3ccc(Cl)cc3)c2c1 [5at, N-[2-(4-Chlorophenyl)Ethyl]-6-Fluoro-4-Quinazolinamine]",remaining activity at 10 µM,PDGFRβ(h); [1],109%
same,remaining activity at 10 µM,Rsk3(h); [1],111%
same,remaining activity at 10 µM,EphA2(h); [1],99%
same,remaining activity at 10 µM,MELK(h); [1],73%
same,remaining activity at 10 µM,CHK2(R145W)(h); [1],91%
same,remaining activity at 10 µM,CaMKIIα(h); [1],89%
same,remaining activity at 10 µM,MST2(h); [1],81%
same,remaining activity at 10 µM,ALK6(h); [1],92%
same,remaining activity at 10 µM,EphA5(h); [1],87%
same,remaining activity at 10 µM,SRMS(h); [1],71%
same,remaining activity at 10 µM,CK1γ2(h); [1],76%
same,remaining activity at 10 µM,PAK3(h); [1],93%
same,remaining activity at 10 µM,MAP4K4(h); [1],92%
same,remaining activity at 10 µM,SBK1(h); [1],103%
same,remaining activity at 10 µM,SIK2(h); [1],84%
"Fc1ccc(CCNc2ncnc3ccc(F)cc23)cc1 [5as, 6-Fluoro-N-[2-(4-Fluorophenyl)Ethyl]-4-Quinazolinamine]",remaining activity at 10 µM,PDGFRβ(h); [2],104%
same,remaining activity at 10 µM,Rsk3(h); [2],108%
same,remaining activity at 10 µM,EphA2(h); [2],90%
same,remaining activity at 10 µM,MELK(h); [2],90%
same,remaining activity at 10 µM,CHK2(R145W)(h); [2],90%
same,remaining activity at 10 µM,CaMKIIα(h); [2],88%
same,remaining activity at 10 µM,MST2(h); [2],112%
same,remaining activity at 10 µM,ALK6(h); [2],86%
same,remaining activity at 10 µM,EphA5(h); [2],99%
same,remaining activity at 10 µM,SRMS(h); [2],84%
same,remaining activity at 10 µM,CK1γ2(h); [2],72%
same,remaining activity at 10 µM,PAK3(h); [2],107%
same,remaining activity at 10 µM,MAP4K4(h); [2],75%
same,remaining activity at 10 µM,SBK1(h); [2],95%
same,remaining activity at 10 µM,SIK2(h); [2],97%
"COc1ccc2ncnc(Nc3cccc(F)c3)c2c1 [5ay, N-(3-Fluorophenyl)-6-Methoxy-4-Quinazolinamine]",remaining activity at 10 µM,PDGFRβ(h); [3],113%
same,remaining activity at 10 µM,Rsk3(h); [3],87%
same,remaining activity at 10 µM,EphA2(h); [3],75%
same,remaining activity at 10 µM,MELK(h); [3],95%
same,remaining activity at 10 µM,CHK2(R145W)(h); [3],87%
same,remaining activity at 10 µM,CaMKIIα(h); [3],58%
same,remaining activity at 10 µM,MST2(h); [3],102%
same,remaining activity at 10 µM,ALK6(h); [3],87%
same,remaining activity at 10 µM,EphA5(h); [3],95%
same,remaining activity at 10 µM,SRMS(h); [3],78%
same,remaining activity at 10 µM,CK1γ2(h); [3],62%
same,remaining activity at 10 µM,PAK3(h); [3],99%
same,remaining activity at 10 µM,MAP4K4(h); [3],73%
same,remaining activity at 10 µM,SBK1(h); [3],83%
same,remaining activity at 10 µM,SIK2(h); [3],65%
"Fc1ccc(CNc2ncnc3ccc(F)cc23)cc1 [5aa, 6-Fluoro-N-(4-fluorobenzyl)-4-Quinazolinamine]",remaining activity at 10 µM,PDGFRβ(h); [4],97%
same,remaining activity at 10 µM,Rsk3(h); [4],126%
same,remaining activity at 10 µM,EphA2(h); [4],73%
same,remaining activity at 10 µM,MELK(h); [4],86%
same,remaining activity at 10 µM,CHK2(R145W)(h); [4],101%
same,remaining activity at 10 µM,CaMKIIα(h); [4],94%
same,remaining activity at 10 µM,MST2(h); [4],98%
same,remaining activity at 10 µM,ALK6(h); [4],94%
same,remaining activity at 10 µM,EphA5(h); [4],90%
same,remaining activity at 10 µM,SRMS(h); [4],86%
same,remaining activity at 10 µM,CK1γ2(h); [4],84%
same,remaining activity at 10 µM,PAK3(h); [4],96%
same,remaining activity at 10 µM,MAP4K4(h); [4],75%
same,remaining activity at 10 µM,SBK1(h); [4],106%
same,remaining activity at 10 µM,SIK2(h); [4],91%
